Laboratory results as given in US8822517B2, “Arylosulfonamides for the treatment of CNS diseases” (Adamed SP. Z O.O., priority 2010, dated 2014).

Columns and labels:
[1] = molecular target: T1, serotoninergic 5-HT1A receptor (Homo sapiens, UniProt P08908); test: Binding assay 5-HT1A (h), [3H]8-OH-DPAT, HEK-293 cells; set-up: expressed in transfected cells; host or cells: HEK-293 cells; conditions: read-out: 5-HT1A
T1 sequence (P08908 1-422): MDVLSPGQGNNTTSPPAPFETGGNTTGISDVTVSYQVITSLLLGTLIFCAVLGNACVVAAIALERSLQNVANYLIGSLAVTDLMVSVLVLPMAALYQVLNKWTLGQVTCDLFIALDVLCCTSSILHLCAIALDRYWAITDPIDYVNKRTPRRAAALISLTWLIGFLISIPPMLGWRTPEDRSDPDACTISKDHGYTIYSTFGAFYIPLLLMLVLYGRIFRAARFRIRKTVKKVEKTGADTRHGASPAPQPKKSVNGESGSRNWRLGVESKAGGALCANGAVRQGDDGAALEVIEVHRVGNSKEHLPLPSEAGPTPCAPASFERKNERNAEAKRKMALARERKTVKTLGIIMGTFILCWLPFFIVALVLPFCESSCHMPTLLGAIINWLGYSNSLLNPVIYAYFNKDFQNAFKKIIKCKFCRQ
Summary of the method: (§1)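 Test conc. 1×10^−6 M. Read-out by scintillation counting. Specific = total − nonspecific (excess cold ligand).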

[2] = molecular target: T2, serotoninergic 5-HT6 receptor (Homo sapiens, UniProt P50406); test: Cellular functional assay, serotoninergic 5-HT6 receptor (agonism/antagonism); format: cell-based; conditions: for activation at 1 µM: agonist effect, percent of control specific agonist response, compounds tested at 1×10^−6M, read-out: 5-HT6-ag [%]; for inhibition at 1 µM: read-out: 5-HT6-antag. [%]
Experimental: (§2) The compounds were tested at the concentration of 1×10^−6M.
(§3) In the Tables ag refers to agonism, and antag to antagonism).

adrenergic α2C receptor = molecular target: T3, adrenergic α2C receptor (Homo sapiens, UniProt P18825); test: Cellular functional assay, adrenergic α2C receptor (agonism/antagonism); format: cell-based; conditions: for activation at 1 µM: agonist effect, percent of control specific agonist response, compounds tested at 1×10^−6M, read-out: α2C −ag [%]; for inhibition at 1 µM: read-out: α2C −antag. [%]
T3 sequence (P18825 1-462): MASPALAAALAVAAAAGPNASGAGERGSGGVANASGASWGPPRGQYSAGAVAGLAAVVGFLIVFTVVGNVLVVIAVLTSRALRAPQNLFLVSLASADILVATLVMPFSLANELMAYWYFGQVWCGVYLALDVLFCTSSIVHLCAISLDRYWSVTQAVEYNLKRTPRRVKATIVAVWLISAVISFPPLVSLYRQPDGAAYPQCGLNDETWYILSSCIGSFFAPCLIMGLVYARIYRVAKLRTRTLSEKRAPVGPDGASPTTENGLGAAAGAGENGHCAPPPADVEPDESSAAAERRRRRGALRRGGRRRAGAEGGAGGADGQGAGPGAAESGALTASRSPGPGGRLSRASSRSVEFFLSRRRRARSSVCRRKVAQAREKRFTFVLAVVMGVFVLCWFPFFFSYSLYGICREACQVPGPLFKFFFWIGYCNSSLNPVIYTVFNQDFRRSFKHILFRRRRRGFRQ
Experimental: as §2, §3

[3] = molecular target: T4, serotoninergic receptor 5-HT2C (Homo sapiens, UniProt P28335); test: Binding assay 5-HT2C (h), [3H]mesulergine, HEK-293 cells; conditions: read-out: 5-HT2C [%]
T4 construct: expressed in transfected cells; host or cells: HEK-293 cells
T4 sequence (P28335 33-458): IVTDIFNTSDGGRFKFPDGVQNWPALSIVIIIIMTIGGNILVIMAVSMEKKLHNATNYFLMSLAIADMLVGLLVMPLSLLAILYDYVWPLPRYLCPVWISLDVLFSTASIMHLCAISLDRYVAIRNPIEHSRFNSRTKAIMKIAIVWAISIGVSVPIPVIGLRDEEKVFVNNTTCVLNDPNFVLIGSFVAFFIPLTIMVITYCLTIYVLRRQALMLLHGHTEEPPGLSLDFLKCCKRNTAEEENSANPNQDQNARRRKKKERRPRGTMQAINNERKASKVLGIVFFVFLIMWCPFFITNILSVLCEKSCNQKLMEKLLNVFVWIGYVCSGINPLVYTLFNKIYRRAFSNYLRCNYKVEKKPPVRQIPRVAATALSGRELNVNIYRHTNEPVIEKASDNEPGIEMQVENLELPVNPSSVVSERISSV
Summary of the method: as §1

[4] = molecular target: histaminergic H1 receptor (Homo sapiens, UniProt P35367); test: Cellular functional assay, histaminergic H1 receptor (agonism/antagonism); format: cell-based; conditions: for activation at 1 µM: agonist effect, percent of control specific agonist response, compounds tested at 1×10^−6M, read-out: H1 -ag [%]; for inhibition at 1 µM: read-out: H1 -antag. [%]
Experimental: as §2, §3

dopaminergic D3 receptor = dopaminergic D3 receptor (Homo sapiens, UniProt P35462); test: Binding assay D3 (h), [3H]methyl-spiperone, CHO cells; set-up: expressed in transfected cells; host or cells: CHO cells; conditions: read-out: D3 [%]
Summary of the method: as §1

[5] = molecular target: T2, serotoninergic 5-HT6 receptor; test: Binding assay 5-HT6 (h), [3H]LSD, CHO cells; set-up: expressed in transfected cells; host or cells: CHO cells; conditions: read-out: 5-HT6
Summary of the method: as §1

[6] = molecular target: T1, serotoninergic 5-HT1A receptor; test: Cellular functional assay, serotoninergic 5-HT1A receptor (agonism/antagonism); format: cell-based; conditions: for inhibition at 1 µM: CHO, read-out: 5-HT1A-antag. [%]; for activation at 1 µM: agonist effect, percent of control specific agonist response (100 nM 8-OH-DPAT for control), 1×10^−6 M, 5-HT1A (h), CHO cells, read-out: 5-HT1A-ag [%]
Experimental: as §2, §3

T2 sequence (P50406 whole entry): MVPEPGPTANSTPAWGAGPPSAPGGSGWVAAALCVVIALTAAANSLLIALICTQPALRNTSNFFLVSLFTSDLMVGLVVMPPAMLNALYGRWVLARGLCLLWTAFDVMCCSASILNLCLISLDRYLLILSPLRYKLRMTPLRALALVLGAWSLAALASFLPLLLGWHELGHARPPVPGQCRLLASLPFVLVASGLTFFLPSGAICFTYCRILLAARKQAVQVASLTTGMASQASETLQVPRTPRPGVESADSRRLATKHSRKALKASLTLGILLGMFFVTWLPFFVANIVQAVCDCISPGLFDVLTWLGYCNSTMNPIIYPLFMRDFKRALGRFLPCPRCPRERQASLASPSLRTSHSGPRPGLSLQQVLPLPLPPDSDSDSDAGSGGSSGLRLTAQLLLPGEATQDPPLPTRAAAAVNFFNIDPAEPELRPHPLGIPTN
dopaminergic D3 receptor, sequence (P35462 whole entry): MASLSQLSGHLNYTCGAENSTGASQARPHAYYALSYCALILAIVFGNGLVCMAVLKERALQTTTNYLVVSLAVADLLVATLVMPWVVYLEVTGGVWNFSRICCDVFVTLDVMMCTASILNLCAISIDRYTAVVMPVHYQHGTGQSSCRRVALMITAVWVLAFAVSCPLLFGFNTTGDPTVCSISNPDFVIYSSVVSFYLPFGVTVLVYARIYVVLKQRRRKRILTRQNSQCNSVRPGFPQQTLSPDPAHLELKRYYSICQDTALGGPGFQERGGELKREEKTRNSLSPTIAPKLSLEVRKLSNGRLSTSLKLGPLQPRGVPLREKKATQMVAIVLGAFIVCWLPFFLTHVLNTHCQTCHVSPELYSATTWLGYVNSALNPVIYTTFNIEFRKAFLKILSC
histaminergic H1 receptor, sequence (P35367 whole entry): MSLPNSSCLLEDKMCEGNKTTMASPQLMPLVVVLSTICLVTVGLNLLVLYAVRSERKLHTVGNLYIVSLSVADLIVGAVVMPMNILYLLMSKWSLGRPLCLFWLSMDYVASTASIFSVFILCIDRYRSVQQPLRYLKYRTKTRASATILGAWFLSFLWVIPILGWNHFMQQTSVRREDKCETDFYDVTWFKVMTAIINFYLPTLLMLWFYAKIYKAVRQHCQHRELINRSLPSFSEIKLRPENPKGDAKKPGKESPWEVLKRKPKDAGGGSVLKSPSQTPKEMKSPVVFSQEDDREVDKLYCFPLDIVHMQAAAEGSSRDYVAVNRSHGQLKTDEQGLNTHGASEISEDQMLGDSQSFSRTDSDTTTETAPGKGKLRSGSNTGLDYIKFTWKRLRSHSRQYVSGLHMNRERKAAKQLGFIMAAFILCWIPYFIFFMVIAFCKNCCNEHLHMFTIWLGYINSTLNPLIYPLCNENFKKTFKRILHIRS

SMILES	inhibition at 1 µM [1] [%]	activation at 1 µM [2] [%]	inhibition at 1 µM [2] [%]	activation at 1 µM (adrenergic α2C receptor) [%]	inhibition at 1 µM (adrenergic α2C receptor) [%]	inhibition at 1 µM [3] [%]	activation at 1 µM [4] [%]	inhibition at 1 µM [4] [%]	inhibition at 1 µM (dopaminergic D3 receptor) [%]	inhibition at 1 µM [5] [%]	inhibition at 1 µM [6] [%]	activation at 1 µM [6] [%]
O=c1[nH]c2ccc(S(=O)(=O)NCCCN3CCN(c4nsc5ccccc45)CC3)cc2o1 [Compound 8, N-(3-(4-(1,2-Benzothiazol-3-yl)piperazin-1-yl)propyl)-2-oxo-3H-1,3-benzoxazole-6-sulphonamide]	100	-1	64	-16	1	90	1	98	97	91	81	14
Cc1c(S(=O)(=O)NCCCCN2CCN(c3nsc4ccccc34)CC2)sc2ccc(F)cc12 [Compound 65, N-[4-[4-(1,2-Benzothiazol-3-yl)piperazin-1-yl]butyl]-5-fluoro-3-methylbenzothiophene-2-sulphonamide]	100	-1	81	8	20	95	0	60	74	97	35	9
Cc1c(S(=O)(=O)NCCCCN2CCN(c3noc4ccccc34)CC2)sc2ccc(F)cc12 [Compound 81, N-[4-[4-(1,2-Benzoxazol-3-yl)piperazin-1-yl]butyl]-5-fluoro-3-methylbenzothiophene-2-sulphonamide]	92	1	88	9	20	50	1	38	97	98	22	5
Cc1c(S(=O)(=O)NCCCN2CCC(c3noc4cc(F)ccc34)CC2)sc2ccc(F)cc12 [Compound 102, 5-Fluoro-N-[3-[4-(6-fluoro-1,2-benzoxazol-3-yl)piperidin-1-yl]propyl]-3-methylbenzothiophene-2-sulphonamide]	92	-1	82	-7	14	76	0	48	103	97	35	1
O=S(=O)(NCCCCN1CCN(c2nsc3ccccc23)CC1)c1cc2ccccc2s1 [Compound 239, N-[4-[4-(1,2-Benzothiazol-3-yl)piperazin-1-yl]butyl]benzothiophene-2-sulphonamide]	98	0	70	3	33	88	0	54	102	96	58	7
O=S(=O)(NCCCCN1CCN(c2nsc3ccccc23)CC1)c1csc2ccccc12 [Compound 240, N-[4-[4-(1,2-Benzothiazol-3-yl)piperazin-1-yl]butyl]benzothiophene-3-sulphonamide]	98	-2	71	13	35	78	0	69	99	98	50	9
O=S(=O)(NCCCCN1CCN(c2noc3ccccc23)CC1)c1cc2ccc(Cl)cc2s1 [Compound 288, N-[4-[4-(1,2-Benzoxazol-3-yl)piperazin-1-yl]butyl]-6-chlorobenzothiophene-2-sulphonamide]	86	0	74	1	13	32	0	57	102	98		
O=S(=O)(NCCCCN1CCC(c2noc3cc(F)ccc23)CC1)c1ccc(Br)cc1 [Compound 298, 4-Bromo-N-[4-[4-(6-fluoro-1,2-benzoxazol-3-yl)piperidin-1-yl]butyl]benzenesulphonamide]	67	0	89	-4	39	52	30	90	98	98		
O=S(=O)(NCCCCN1CCC(c2noc3cc(F)ccc23)CC1)c1csc2ccccc12 [Compound 313, N-[4-[4-(6-Fluoro-1,2-benzoxazol-3-yl)piperidin-1-yl]butyl]benzothiophene-3-sulphonamide]	72	-3	91	-11	46	59	4	47	99	100		
O=S(=O)(NCCCCN1CCC(c2noc3cc(F)ccc23)CC1)c1cc2ccc(Cl)cc2s1 [Compound 314, 6-Chloro-N-[4-[4-(6-fluoro-1,2-benzoxazol-3-yl)piperidin-1-yl]butyl]benzothiophene-2-sulphonamide]	75	0	91	-2	30	85	5	50	100	100		
O=S(=O)(NCCCN1CCC(c2noc3cc(F)ccc23)CC1)c1ccc2cn[nH]c2c1 [Compound 352, N-[3-[4-(6-Fluoro-1,2-benzoxazol-3-yl)piperidin-1-yl]propyl]-1H-indazole-6-sulphonamide]	89	-2	75	-16	16	78	1	60	97	95		
